Measurements: patent US20240150293A1, “SPIROCYCLOHEXANE DERIVATIVES, PHARMACEUTICAL COMPOSITIONS CONTAINING THEM AND THEIR USES AS ANTI-APOPTOTIC INHIBITORS” (LES LABORATOIRES SERVIER, priority 2021, published 2024)

What follows are molecules tested against Cy5-labelled Mcl1 (amino acids 171-321) C286S protein (UniProtKB Q07820) (Homo sapiens (Human), UniProt Q07820, C286S) (assay: Inhibition of Mcl-1 by the fluorescence quenching assay (Example A, Method B)). Conditions: not given.
Cy5-labelled Mcl1 (amino acids 171-321) C286S protein, sequence (Q07820 171-321 C286S): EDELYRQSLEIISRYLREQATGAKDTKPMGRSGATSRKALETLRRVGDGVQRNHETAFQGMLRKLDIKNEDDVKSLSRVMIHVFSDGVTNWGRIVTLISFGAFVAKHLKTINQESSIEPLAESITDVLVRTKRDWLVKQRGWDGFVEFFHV
Assay type: binding
Excerpt: Fluorescence quenching assay measures the change fluorescence intensity of C-terminally Cy5-labelled Mcl1 (amino acids 171-321) C286S protein (UniProtKB® primary accession number Q07820) having an amino acid sequence:
which is linked at the C-terminus to the amino acid X which corresponds to a cysteine labelled on the sulfur with sulpho-Cyanine5 from Lumiprobe GmbH catalogue number 13380, upon binding of a C-terminally labelled peptide derived from PUMA (UniProtKB® primary accession number Q9BXH1) having an amino acid sequence:
which is linked at the C-terminus to the amino acid X′, where X′ is cysteine labelled on the sulfur with TQ5WS from AAT Bioquest catalogue number 2079.
The addition of a compound which binds competitively to the same site as the peptide will result in an increase in the fluorescence intensity of the protein due to displacement of the fluorescence quencher.
An 11-point serial dilution of each compound was prepared in DMSO, the final buffer conditions were 10 mM 4-(2-hydroxyethyl)-1-piperazineethanesulfonic acid [HEPES], 150 mM NaCl, 0.05% Tween 20, pH 7.4 and 5% DMSO. The final protein concentration in the assay was 1 nM with the peptide present at 10, 20 or 400 nM. The experiments were incubated for 2 hours at room temperature before fluorescence intensity was measured on a Biotek SynergyNeo plate reader (Excitation 620 nm, emission 680 nm). The dose response curves were plotted with XL-Fit software using a 4-Parameter Logistic Model (Sigmoidal DoseResponse Model) and the inhibitory concentrations that gave a 50% increase in fluorescence intensity was determined (IC50). The Ki values were determined from the IC50 values according to Cer et al, Nucleic Acids Res, 2009, 37 (WebServer issue): W441-W445. Inhibition constants (Ki) are determined from complete binding inhibition curves (cKi) or from estimated from incomplete binding inhibition curves (eKi) in most cases due to low activity.
`CC(C)(C)OC(=O)N1CCC(CC2=Cc3ccccc3[C@]23CC[C@@](Nc2cccc(Cl)c2)(C(=O)O)CC3)CC1` [Example 558, (1r,4r)-2′-{[1-(tert-butoxycarbonyl)piperidin-4-yl]methyl}-4-(3-chloroanilino)spiro[cyclohexane-1,1′-indene]-4-carboxylic acid] gave a Ki of 549 nM.
With `Cc1cnc2c(c1OC[C@H](C)C[C@H]1Cc3ccccc3[C@]13CC[C@@](Nc1cccc(Cl)c1)(C(=O)O)CC3)CCCC2` [Example 649, (1r,2′S,4S)-4-(3-chloroanilino)-2′-{(2R)-2-methyl-3-[(3-methyl-5,6,7,8-tetrahydroquinolin-4-yl)oxy]propyl}-2′,3′-dihydrospiro[cyclohexane-1,1′-indene]-4-carboxylic acid] the Ki was 6.36 nM.
Molecule `CC(C)COc1cc2c(cc1Cl)C[C@H](C[C@@H](C)COc1ccnc3c1[C@H](C)CCC3)[C@]21CC[C@](Nc2cccc(Cl)c2)(C(=O)O)CC1` [Example 820, (1r,2′S,4S)-5′-chloro-4-(3-chloroanilino)-2′-[(2R)-2-methyl-3-{[(5R)-5-methyl-5,6,7,8-tetrahydroquinolin-4-yl]oxy}propyl]-6′-(2-methylpropoxy)-2′,3′-dihydrospiro[cyclohexane-1,1′-indene]-4-carboxylic acid] has a Ki of 0.469 nM.
`C[C@H](C[C@H]1Cc2ccccc2[C@]12CC[C@@](Nc1cccc(Cl)c1)(C(=O)O)CC2)[C@@H](C)Oc1ccnc2c1CCC2` [Example 616, (1r,2′S,4S)-4-(3-chloroanilino)-2′-{(2R,3R)-3-[(6,7-dihydro-5H-cyclopenta[b]pyridin-4-yl)oxy]-2-methylbutyl}-2′,3′-dihydrospiro[cyclohexane-1,1′-indene]-4-carboxylic acid] was tested, and the Ki was 12.1 nM.
With `C[C@@H](COc1ccnc2c1CCCCC2)CC1=Cc2ccccc2[C@]12CC[C@@](Nc1cccc(Cl)c1)(C(=O)O)CC2` [Example 632, (1r,4R)-4-(3-chloroanilino)-2′-{(2R)-2-methyl-3-[(6,7,8,9-tetrahydro-5H-cyclohepta[b]pyridin-4-yl)oxy]propyl}spiro[cyclohexane-1,1′-indene]-4-carboxylic acid] the Ki was 6.01 nM.

Same assay, conditions: @ 10 μM, read-out: Mcl-1 inhibition, % at a single concentration
In the case of `CC(C)OC(=O)[C@]1(Nc2cccc(Cl)c2)CC[C@@]2(CC1)c1cc3c(cc1C[C@@H]2C[C@@H](C)COc1ccnc2c1[C@H](C)CCC2)OCO3` [Example 931, propan-2-yl (1r,4S,6′S)-4-(3-chloroanilino)-6′-[(2R)-2-methyl-3-{[(5R)-5-methyl-5,6,7,8-tetrahydroquinolin-4-yl]oxy}propyl]-6′,7′-dihydro-2′H-spiro[cyclohexane-1,5′-indeno[5,6-d][1,3]dioxole]-4-carboxylate], the inhibition at 10 µM is reported as 9.5%.

Each molecule was assayed against Mcl-1 protein (UniProtKB Q07820) (Homo sapiens (Human), UniProt Q07820) (assay: Inhibition of Mcl-1 by the fluorescence polarisation assay (Example A, Method A)). Conditions: fluorescence polarization assay.
Mcl-1 protein, sequence (Q07820 whole entry): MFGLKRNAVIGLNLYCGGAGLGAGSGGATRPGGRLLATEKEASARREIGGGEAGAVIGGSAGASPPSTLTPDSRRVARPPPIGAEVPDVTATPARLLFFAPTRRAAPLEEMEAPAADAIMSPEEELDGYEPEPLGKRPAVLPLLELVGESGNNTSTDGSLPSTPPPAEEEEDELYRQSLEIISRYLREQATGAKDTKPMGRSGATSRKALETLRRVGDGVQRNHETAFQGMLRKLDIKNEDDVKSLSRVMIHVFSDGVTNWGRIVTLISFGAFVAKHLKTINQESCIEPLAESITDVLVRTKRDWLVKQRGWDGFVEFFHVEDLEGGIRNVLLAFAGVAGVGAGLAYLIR
Assay type: binding
How it was run: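 Protein (5 nM) and fluorescein-tagged peptide tracer (1 nM) incubated with 11-point compound series for 2 h at room temperature in HEPES/NaCl/Tween 20 buffer, pH 7.4, 5% DMSO. Displacement read as decrease in polarisation; IC50 fitted by 4-parameter logistic, converted to Ki (cKi or eKi).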
Molecule `O=C(O)[C@]1(Nc2cccc(Cl)c2)CC[C@]2(CC1)C(CC(COc1ccnc3ccsc13)COc1ccnc3ccsc13)=Cc1ccccc12` [Example 492, (1r,4r)-4-(3-chloroanilino)-2′-(3-[(thieno[3,2-b]pyridin-7-yl)oxy]-2-{[(thieno[3,2-b]pyridin-7-yl)oxy]methyl}propyl)spiro[cyclohexane-1,1′-indene]-4-carboxylic acid] has a Ki of 93.7 nM.
Work on `Cn1ccc2cc(C3Cc4ccccc4[C@]34CC[C@@](Nc3cccc(Cl)c3)(C(=O)O)CC4)ccc21` (stereo partly drawn) [Example 274, (1r,4r)-4-(3-chloroanilino)-2′-(1-methyl-1H-indol-5-yl)-2′,3′-dihydrospiro[cyclohexane-1,1′-indene]-4-carboxylic acid] yielded a Ki of 4690 nM.
`O=C(O)[C@]1(Nc2cccc(Cl)c2)CC[C@]2(CC1)C(c1ccccc1Cl)=Cc1ccccc12` [Example 311, (1s,4s)-4-(3-chloroanilino)-2′-(2-chlorophenyl)spiro[cyclohexane-1,1′-indene]-4-carboxylic acid] gave a Ki of 559 nM.
For `COc1cc2c(cc1OC)[C@]1(CC[C@@](Nc3cccc(Cl)c3)(C(=O)O)CC1)C(Br)=C2` [Example 136, (1s,4s)-2′-bromo-4-(3-chloroanilino)-5′,6′-dimethoxyspiro[cyclohexane-1,1′-indene]-4-carboxylic acid], the Ki was 259 nM.
In the case of `CC1=Cc2ccccc2[C@]12CC[C@@](Nc1cccc(Br)c1)(C(=O)O)CC2` [Example 142, (1r,4r)-4-(3-bromoanilino)-2′-methylspiro[cyclohexane-1,1′-indene]-4-carboxylic acid], the Ki is reported as 261 nM.
For `O=C(O)[C@]1(Nc2cccc(Cl)c2)CC[C@@]2(CC1)c1ccccc1CC2c1cccc(OCc2cccnc2)c1` (single isomer, unassigned) [Example 372, (1r,4r)-4-(3-chloroanilino)-2′-{3-[(pyridin-3-yl)methoxy]phenyl}-2′,3′-dihydrospiro[cyclohexane-1,1′-indene]-4-carboxylic acid], the Ki was 201 nM.
With `O=C(O)[C@]1(Nc2cccc(Cl)c2)CC[C@@]2(CC1)c1ccccc1C[C@@H]2c1ccc(Oc2ccccc2)cc1` [Example 359, (1r,2′R,4R)-4-(3-chloroanilino)-2′-(4-phenoxyphenyl)-2′,3′-dihydrospiro[cyclohexane-1,1′-indene]-4-carboxylic acid] the Ki was 2140 nM.
In the case of `C[C@H]1c2ccccc2[C@]2(CC[C@@](Nc3cccc(Cl)c3)(C(=O)O)CC2)[C@H]1C` (single isomer, unassigned) [Example 208, (1r,2′R*,3'S*,4r)-4-(3-chloroanilino)-2′,3′-dimethyl-2′,3′-dihydrospiro[cyclohexane-1,1′-indene]-4-carboxylic acid], the Ki is reported as 31600 nM.
Work on `O=C(O)[C@]1(Nc2cccc(Cl)c2)CC[C@@]2(CC1)c1ccccc1CC2c1cccc2c1OCC2` (single isomer, unassigned) [Example 296, (1r,4r)-4-(3-chloroanilino)-2′-(2,3-dihydro-1-benzofuran-7-yl)-2′,3′-dihydrospiro[cyclohexane-1,1′-indene]-4-carboxylic acid] yielded a Ki of 3460 nM.
Molecule `O=C(O)[C@]1(Nc2cccc(Cl)c2)CC[C@]2(CC1)C(COCCc1cccc(Cl)c1)=Cc1ccccc12` [Example 417, (1s,4s)-4-(3-chloroanilino)-2′-{[2-(3-chlorophenyl)ethoxy]methyl}spiro[cyclohexane-1,1′-indene]-4-carboxylic acid] has a Ki of 522 nM.
Molecule `O=C(O)[C@]1(Nc2cccc(Cl)c2)CC[C@]2(CC1)C(Br)=Cc1cc(F)ccc12` [Example 138, (1s,4s)-2′-bromo-4-(3-chloroanilino)-5′-fluorospiro[cyclohexane-1,1′-indene]-4-carboxylic acid] has a Ki of 219 nM.
Work on `CN1c2ccc(Br)cc2[C@]2(CC[C@](Nc3cccc(Br)c3)(C(=O)O)CC2)C1=O` [Example 6, (1r,4r)-5′-bromo-4-(3-bromoanilino)-1′-methyl-2′-oxo-1′,2′-dihydrospiro[cyclohexane-1,3′-indole]-4-carboxylic acid] yielded a Ki of 9910 nM.
`Cc1cccc(C2=Cc3ccccc3[C@]23CC[C@@](Nc2cccc(Cl)c2)(C(=O)O)CC3)c1` [Example 335, (1s,4s)-4-(3-chloroanilino)-2′-(3-methylphenyl)spiro[cyclohexane-1,1′-indene]-4-carboxylic acid] gave a Ki of 889 nM.
`CC(=O)c1ccc2c(c1)[C@]1(CC[C@@](Nc3cccc(Cl)c3)(C(=O)O)CC1)C(Br)=C2` [Example 132, (1s,4s)-6′-acetyl-2′-bromo-4-(3-chloroanilino)spiro[cyclohexane-1,1′-indene]-4-carboxylic acid] was tested, and the Ki was 150 nM.
Work on `C=CCOc1ccc2c(c1)[C@]1(CC2)CC[C@](Nc2cccc(Br)c2)(C(=O)O)CC1` [Example 68, (1r,4s)-4-(3-bromoanilino)-6′-[(prop-2-en-1-yl)oxy]-2′,3′-dihydrospiro[cyclohexane-1,1′-indene]-4-carboxylic acid] yielded a Ki of 302 nM.
With `O=C(O)[C@]1(Nc2cccc(Br)c2)CC[C@@]2(CC1)c1ccccc1C[C@@H]2c1ccccc1` [Example 211, (1r,2′R,4R)-4-(3-bromoanilino)-2′-phenyl-2′,3′-dihydrospiro[cyclohexane-1,1′-indene]-4-carboxylic acid] the Ki was 11000 nM.
With `COc1ccc(C2=Cc3ccccc3[C@]23CC[C@@](Nc2cccc(Cl)c2)(C(=O)O)CC3)cc1C` [Example 225, (1s,4s)-4-(3-chloroanilino)-2′-(4-methoxy-3-methylphenyl)spiro[cyclohexane-1,1′-indene]-4-carboxylic acid] the Ki was 1020 nM.
Molecule `O=C(O)[C@]1(Nc2cccc(Cl)c2)CC[C@@]2(CC1)c1ccccc1CC2[C@H]1C[C@@H]1COc1ccccc1` (relative stereo) [Example 111, (1r,4r)-4-(3-chloroanilino)-2′-[(1R*,2S*)-2-(phenoxymethyl)cyclopropyl]-2′,3′-dihydrospiro[cyclohexane-1,1′-indene]-4-carboxylic acid] has a Ki of 9680 nM.
